{
  "source": "patent US7732160B2",
  "about": "“Methamphetamine derivatives and conjugates for immunoassay” (Roche Diagnostics Operations, Inc., priority 2004, dated 2010)",
  "data": [
    {"tested_on": "monoclonal antibody NEAMP 48.2", "experiment": "Microparticle agglutination immunoassay with conjugate (12) and N-ethylamphetamine antibody-coated particles, percent cross-reactivity", "format": "binding", "conditions": "NEAMP 48.2 antibody with conjugate (12)", "protocol": "The conjugate reagent was prepared as described in Example 16.\nAn antibody-coated microparticle was prepared as described in Example 16 using monoclonal antibody NEAMP 48.2 described in U.S. 2004/0077021. A microparticle reagent was then prepared as described in Example 16.\nThe assay was carried out on a Roche/Hitachi 917 analyzer as described in Example 16.\nPercent cross-reactivity was determined in an ammunoassay. A standard curve was established using known amounts of the target analyte methylenedioxyethylamphetamine (MDEA). Known amounts of various amphetamine-related drugs were to be analyzed as samples in the immunoassay, and apparent concentrations of these drugs were generated from the standard curve. Apparent concentration of the drug, divided by actual concentration and multiplied by 100, is the percent cross-reactivity of this drug.", "values": [
      {"smiles": "CCNC(C)Cc1ccc2c(c1)OCO2", "note": "(centres unmarked) [MDEA, 3,4-methylenedioxy-N-ethylamphetamine]", "Cross-reactivity": "good cross-reactivity"},
      {"smiles": "CC(C)(N)Cc1ccccc1", "note": "[Phentermine]", "Cross-reactivity": "essentially none"},
      {"smiles": "NCCc1ccc(O)cc1", "note": "[Tyramine]", "Cross-reactivity": "essentially none"},
      {"smiles": "CN[C@@H](C)[C@@H](O)c1ccccc1", "note": "[d-pseudoephedrine]", "Cross-reactivity": "essentially none"},
      {"smiles": "CN[C@@H](C)[C@H](O)c1ccccc1", "note": "[l-ephedrine]", "Cross-reactivity": "essentially none"}
    ]},
    {"tested_on": "monoclonal antibody specific for methamphetamine", "experiment": "Microparticle agglutination immunoassay with conjugate (12) and methamphetamine antibody-coated particles, percent cross-reactivity", "format": "binding", "conditions": "methamphetamine antibody with conjugate (12)", "values": [
      {"smiles": "CCC(Cc1ccc2c(c1)OCO2)NC", "note": "(centres unmarked) [MBDB, 3,4-methylenedioxyphenyl-N-methylbutanamine]", "Cross-reactivity": "good cross-reactivity"},
      {"smiles": "CNC(C)Cc1ccc2c(c1)OCO2", "note": "(centres unmarked) [MDMA, 3,4-methylenedioxy-N-methylamphetamine]", "Cross-reactivity": "good cross-reactivity"},
      {"smiles": "CN[C@@H](C)Cc1ccccc1", "note": "[d-Methamphetamine]", "Cross-reactivity": "good cross-reactivity"}
    ]}
  ]
}
